# According to patent US20060252683A1, “Preparation of a peptide compound (SYRAPRO-2000) and its use for the activation of protein phosphatase-2A1 enzyme” (priority 2005, published 2006):
# Experiments:
# protein phosphatase-1 = biological target: T1, protein phosphatase-1 (Oryctolagus cuniculus, UniProt P62139); test: Protein phosphatase-1 assay; format: biochemical, rabbit; settings: various concentrations
# T1 construct: Protein phosphatase-1 was purified from rabbit skeletal muscle; from tissue; host or cells: rabbit skeletal muscle
# T1 sequence (P62139 whole entry): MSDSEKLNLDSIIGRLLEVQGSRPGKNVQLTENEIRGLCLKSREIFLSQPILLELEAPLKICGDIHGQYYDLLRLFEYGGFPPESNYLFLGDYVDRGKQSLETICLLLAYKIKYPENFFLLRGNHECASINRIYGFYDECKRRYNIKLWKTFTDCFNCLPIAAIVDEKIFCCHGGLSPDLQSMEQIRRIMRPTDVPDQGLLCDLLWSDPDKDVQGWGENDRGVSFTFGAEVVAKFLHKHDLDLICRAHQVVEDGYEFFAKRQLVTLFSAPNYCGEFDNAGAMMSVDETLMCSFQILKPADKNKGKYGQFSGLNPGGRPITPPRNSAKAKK
# Description: (§1) Protein phosphatase-1 (squares), protein phosphatase-2A1 (circles), protein phosphatase-2B (triangles) and protein phosphatase-2C (stars) were assayed in the presence of various concentrations of HIV-1 Vpr^71-96. 100 percent protein phosphatase activity is equivalent to 0.005 unit. Similar results were obtained in 3 independent experiments.
# (§2) ^32P-labeled phosphorylase a was prepared by phosphorylation of phosphorylase b with phosphorylase kinase as described in (Cohen 1988). ^32P-labeled casein was prepared by phosphorylation of casein with protein kinase A as described in (Tung 1986). Protein phosphatase-1 was purified from rabbit skeletal muscle as described in (Cohen 1988). Protein phosphatase-1 inhibitor-2 was purified from rabbit skeletal muscle as described in (Yang 1981). Protein phosphatase-2A0 and protein phosphatase-2A1 from pig brain and from pig liver were purified as described in (Tung 1985). Protein phosphatase-2A0 and protein phosphatase-2A1 from pig adipose tissue were highly purified by successive chromatography of pig subcutaneous adipose tissue extracts on DEAE Sepharose, Poly-L-lysine Agarose, Sephacryl S-300 HR and thiophosphorylase-a-Sepharose-4B as described in (Tung 1985). Protein phosphatase-2B was purified from pig brain as described in (Tung 1986). […]
# protein phosphatase-2B = test: Protein phosphatase-2B assay; format: biochemical, pig; settings: various concentrations
# Description: as §1, §2
# protein phosphatase-2C = test: Protein phosphatase-2C assay; format: biochemical, pig; settings: various concentrations
# Description: as §1, §2
# [1] = Cell viability (tryphan blue) and cell death of HTB-3 cells; format: cell-based, human; settings: human, HTB-3 cells (glioblastoma cell line), 2000 nM, 8 days of incubation, read-out: treated cells non viable (tryphan blue staining)
# Description: (§3) Panel A, HTB-3 cells (a human glioblastoma cell line) were grown in DMEM and 5% (v/v) fetal bovine serum. Cells (10^6 cells per ml) were treated (+) or not (−) with 2000 nM SYRAPRO-2000. Cell viability was then determined by counting the cells following tryphan blue staining after 4, 8 and 12 days of incubation. Panel B, Following treatment with or without SYRAPRO-2000 for 8 days, HTB-3 cells grown on slides were analyzed by phase contrast microscopy (Row A), by fluorescence microscopy following staining with FITC labeled annexin V (apoptotic cell death) (Row B) or propidium iodide (oncolytic cell death) on a Cells were analyzed on a Zeiss Axioplan 2 imaging universal microscope (Thornwood, N.Y.). Phase contrast images and Green (FITC labeled annexin V) and red (propidium iodide) fluorescence images were obtained. […]
# (§4) HTB-3 cells are grown in DMEM supplemented with 5% (v/v) fetal bovine serum and antibiotics and treated or not with 2 μM SYRAPRO-2000 for 8 days. Following treatment with SYRAPRO-2000, cell viability are then determined by counting the cells following tryphan blue staining. […] Following treatment with SYRAPRO-2000, cells grown on slides by were analyzed by phase contrast microscopy and fluorescence microscopy following staining with FITC labeled annexin V (an indicator of apoptotic cell death) or propidium iodide (an indicator of oncolytic or necrotic cell death). […]
# HTB-3 cells = test: as above; format: cell-based, human; settings: 2000 nM, 8 days
# Description: as §3, §4
structure (smiles),measurement,setting,value
CC[C@H](C)[C@H](NC(=O)[C@H](CCCNC(=N)N)NC(=O)[C@H](CO)NC(=O)[C@H](Cc1c[nH]cn1)NC(=O)[C@H](CCCNC(=N)N)NC(=O)[C@H](CS)NC(=O)CNC(=O)[C@@H](NC(=O)[C@H](CCCNC(=N)N)NC(=O)[C@H](Cc1ccccc1)NC(=O)[C@@H](N)Cc1c[nH]cn1)[C@@H](C)CC)C(=O)NCC(=O)N[C@H](C(=O)N[C@H](C(=O)N[C@@H](CCCNC(=N)N)C(=O)N[C@@H](CCC(N)=O)C(=O)N[C@@H](CCCNC(=N)N)C(=O)N[C@@H](CCCNC(=N)N)C(=O)N[C@@H](C)C(=O)N[C@@H](CCCNC(=N)N)C(=O)N[C@@H](CC(N)=O)C(=O)NCC(=O)N[C@@H](C)C(=O)N[C@@H](CO)C(=O)N[C@@H](CCCNC(=N)N)C(=O)N[C@@H](CO)C(=O)O)[C@@H](C)O)C(C)C [SYRAPRO-2000],effect on activity of protein phosphatase-1,protein phosphatase-1,negligible effect
same,effect on activity of protein phosphatase-2B,protein phosphatase-2B,negligible effect
same,effect on activity of protein phosphatase-2C,protein phosphatase-2C,negligible effect
same,"cytotoxicity at 8 days, 2 µM",[1],~50%
same,mode of cell death (FITC-annexin V and propidium iodide staining),HTB-3 cells,apoptosis and oncolysis
